Laboratory results from PMC10897476, “Pyridylpiperazine efflux pump inhibitor boosts in vivo antibiotic efficacy against K. pneumoniae” (EMBO Molecular Medicine, 2023).
Marks after values point to notes of the source that are not given here.

Assays:
E. coli BW25113 = assay: PyrPip boosting of pyridomycin activity in E. coli (resazurin reduction); type: cell-based, Escherichia coli; settings: for EC90: read-out: PyrPip antibiotic boosting activity EC90
Description: With the aim of developing a PyrPip for in vivo efficacy studies in mice, it was important to optimise the metabolic stability of these efflux pump inhibitors to guarantee sufficient exposure in mice needed for antibiotic boosting. […] To identify metabolically stabilised PyrPips while maintaining AcrB inhibition, it was therefore decided to explore modifications to the quinoline core as well as the introduction of substituents at position 6 of the quinoline ring.

[1] = Microsomal stability in mouse liver microsomes; type: in vitro ADME; settings: for microsomal CLint at 1 μM / half-life at 1 μM: female; for microsomal CLint at 1 μM: CD-1, pH 7.4, read-out: Microsomal stability CLint (intrinsic clearance); for half-life at 1 μM: CD-1, pH 7.4, read-out: Microsomal stability t1/2
Experimental: To determine compound microsomal stability, liver microsomes from female mice (CD-1, Corning) were used. All incubations were performed in duplicate in a shaking water bath at 37 °C. The incubation mixtures contained 1 μM compound with 1% MeOH used as a vehicle, mouse liver microsomes (0.3 mg of microsomal protein per mL), 5 mM MgCl2, 1 mM NADP, 5 mM glucose 6-phosphate, 0.4 U/mL glucose 6-phosphate dehydrogenase, and 50 mM potassium phosphate buffer (pH 7.4) in a final volume of 0.5 mL. Propranolol, known as a high hepatic clearance drug in rodents, was used as a quality-control compound. Controls (t0 and tfinal) were performed in the same conditions but without NADP. The reaction was initiated by the addition of the compound at 1 µM final. Aliquots were removed at 5, 10, 20, 30, and 40 min and the reaction was stopped by adding four volumes of ice-cold MeCN or MeOH containing an internal standard. The samples were centrifuged for 10 min at 12,000 rpm at 4 °C and the supernatants were transferred in matrix tubes for LC-MS/MS analysis. Each compound was quantified by converting the corresponding analyte/internal standard peak area ratios to percentage drug remaining, using the initial ratio values in control incubations as 100%.
Intrinsic clearance (CLint) is expressed as μL/min/mg proteins.

K. pneumoniae AcrB^V448E = assay: MIC of antibiotics with and without EPI (REMA), AcrB V448E mutant; type: cell-based, Klebsiella pneumoniae; settings: for Minimum Inhibitory Concentration: K. pneumoniae AcrB^V448E; for MIC: Klebsiella pneumoniae, read-out: Minimum Inhibitory Concentration
Experimental: (§1) MIC experiments were carried out according to the CLSI guidelines (CLSI [2023]). Overnight cultures were diluted to an OD600 = 0.001 in CAMHB followed by addition of efflux pump inhibitors (EPIs) at a final concentration of 100 µM. […] Plates were incubated at 37 °C for up to 20 h. Bacterial viability was evaluated using the resazurin microtitre assay (REMA) and measured by fluorescence using a Tecan Spaert multimode plate reader (Ex: 530 nm Em: 590 nm). MICs were defined as the concentration that prevented 90% of resazurin turnover compared to the non-treated bacteria.
(§2) Mutations in acrB or ramR identified in the BDM88855.HCl (1’) resistant mutant (a.k.a., KPJC11) were introduced individually into K. pneumoniae ATCC 43816 chromosome by allelic exchange (Cianfanelli et al, [2020]). Briefly, 1-kb PCR products centred around each point mutation were generated by amplifying acrB with primers RH1251 ([…][…]) and RH1252 ([…][…]) or ramR with primers RH1249 ([…][…]) and RH1250 ([…][…]) from KPJC11 genomic DNA. PCR fragments were cloned into pFOK (Cianfanelli et al, [2020]) using NEB-building kit ([New England Biolabs]) to generate pEP1533 and pEP1534. Correct plasmids were confirmed by sequencing and introduced into K. pneumoniae ATCC43816 WT via conjugation with the MFDpir+ E. coli donor strain. Exconjugants were selected on kanamycin (50 mg/L) plates at 37 °C and plasmid chromosomal integration was checked by PCR. […] The next day, cultures were diluted and plated onto LB agar. Isolated colonies were then patched onto LB plates with or without kanamycin (50 mg/L) and Km^S candidates were evaluated for correct allelic exchange via acrB or ramR sequencing and then WGS to confirm no additional mutations were introduced.

[2] = test system: K. pneumoniae RamR^mut (K124*stop); assay: MIC of antibiotics with and without EPI (REMA), RamR mutant; type: cell-based, Klebsiella pneumoniae; settings: for Minimum Inhibitory Concentration: K. pneumoniae RamR^mut; for MIC: Klebsiella pneumoniae, read-out: Minimum Inhibitory Concentration
Experimental: as §1, §2

[3] = test system: K. pneumoniae ATCC 43816 (WT); assay: MIC of antibiotics with and without EPI (REMA), WT strain; type: cell-based, Klebsiella pneumoniae; settings: K. pneumoniae WT; for MIC: Klebsiella pneumoniae, ATCC43816, No EPI, read-out: Minimum Inhibitory Concentration
Experimental: Overnight cultures were diluted to an OD600 = 0.001 in CAMHB followed by addition of efflux pump inhibitors (EPIs) at a final concentration of 100 µM. […] Plates were incubated at 37 °C for up to 20 h. […] MICs were defined as the concentration that prevented 90% of resazurin turnover compared to the non-treated bacteria.

[4] = test system: K. pneumoniae AcrB^V448E RamR^mut; assay: MIC of antibiotics with and without EPI (REMA), double mutant; type: cell-based, Klebsiella pneumoniae; settings: for Minimum Inhibitory Concentration: K. pneumoniae AcrB^V448E RamR^mut
Experimental: as §1

[5] = E. coli BW25113 in the presence of 8 μg/mL pyridomycin, resazurin reduction, mean ± SEM

O=C1CNCCN1c1ccc2nc(N3CCNCC3)c(Cl)cc2c1 [compound 8]
EC90 (E. coli BW25113; [5]): 31 µM | decrease in potency (EC90) (E. coli BW25113; piperazinone in place of the piperazine of compound 5): 8 fold

NCC(=O)Nc1ccc2nc(N3CCNCC3)c(Cl)cc2c1 [compound 10]
EC90 (E. coli BW25113; [5]): 3.9 µM | microsomal CLint at 1 μM [1]: 2 µL/min/mg | half-life at 1 μM [1]: > 40 min

N[C@@H]1CCN(c2ccc3nc(N4CCNCC4)c(Cl)cc3c2)C1 [compound 12]
EC90 (E. coli BW25113; [5]): 1.3 ± 0.4 µM | improvement of potency (EC90) (E. coli BW25113; compared to analogue 5): 3 fold | microsomal CLint at 1 μM [1]: 303 µL/min/mg | half-life at 1 μM [1]: 2.6 min

Clc1cc2ccccc2nc1N1CCNCC1 [compound 1]
PyrPip antibiotic boosting activity EC90 (E. coli BW25113; [5]): 3.6 ± 0.5 µM | Microsomal stability CLint (intrinsic clearance) [1]: 59 μL/min/mg proteins | Microsomal stability t1/2 [1]: 24 min | susceptibility of the strain to antibiotic boosting by the EPI, in words (K. pneumoniae AcrB^V448E; K. pneumoniae-AcrB^V448E, Table 2): resistant | EPI mediated antibiotic boosting, in words ([2]; K. pneumoniae-RamR^mut, Table 2): maintained

NCCCNc1ccc2nc(N3CCNCC3)c(Cl)cc2c1 [compound 11]
EC90 (E. coli BW25113; [5]): 7.8 µM | decrease in potency (EC90) (E. coli BW25113; relative to compound 9): 2 fold

Clc1nc2ccccc2cc1N1CCNCC1 [compound 2]
EC90 (E. coli BW25113; [5]): 15.6 µM | decrease in potency (EC90) on changing the position of the nitrogen atom (E. coli BW25113; relative to BDM88855.HCl (1’)): 4 fold

Clc1cc2cc(N3CCCCC3)ccc2nc1N1CCNCC1 [compound 7]
EC90 (E. coli BW25113; [5]): 13 ± 4 µM | microsomal CLint at 1 μM [1]: 223 µL/min/mg | half-life at 1 μM [1]: 6 min

N[C@H]1CCN(c2ccc3nc(N4CCNCC4)c(Cl)cc3c2)C1 [compound 13]
EC90 (E. coli BW25113; [5]): 9.1 ± 4.3 µM

Clc1nc2ccccc2nc1N1CCNCC1 [compound 3]
EC90 (E. coli BW25113; [5]): 3.9 ± 1.6 µM | microsomal CLint at 1 μM [1]: 111 µL/min/mg | half-life at 1 μM [1]: 15 min

Clc1cc2cc(N3CCOCC3)ccc2nc1N1CCNCC1 [compound 6]
EC90 (E. coli BW25113; [5]): 104 ± 28 µM | microsomal CLint at 1 μM [1]: 103 µL/min/mg | half-life at 1 μM [1]: 11 min

Clc1cc2cc[nH]c2nc1N1CCNCC1 [compound 4]
EC90 (E. coli BW25113; [5]): > 250 µM

CCN1CCN(C(=O)N[C@@H](C(=O)N[C@@H]2C(=O)N3[C@@H]2SC(C)(C)[C@@H]3C(=O)O)c2ccccc2)C(=O)C1=O [Piperacillin]
Minimum Inhibitory Concentration ([3]; + 100 µM 1'): 5.3 mg/L | Minimum Inhibitory Concentration ([3]; + 100 µM 5): 4.0^# mg/L | Minimum Inhibitory Concentration ([3]; + 100 µM PAβN): 8.0 mg/L | MIC [3]: 8 µg/mL | Minimum Inhibitory Concentration (K. pneumoniae AcrB^V448E; + 100 µM 1'): 5.3^# mg/L | Minimum Inhibitory Concentration (K. pneumoniae AcrB^V448E; + 100 µM 5): 5.3^# mg/L | Minimum Inhibitory Concentration (K. pneumoniae AcrB^V448E; + 100 µM PAβN): 13 mg/L | MIC (K. pneumoniae AcrB^V448E): 16 µg/mL | Minimum Inhibitory Concentration ([2]; + 100 µM 1'): 16 mg/L | Minimum Inhibitory Concentration ([2]; + 100 µM 5): 6.7^# mg/L | Minimum Inhibitory Concentration ([2]; + 100 µM PAβN): 21 mg/L | MIC [2]: 27 µg/mL | Minimum Inhibitory Concentration ([4]; + 100 µM 1'): 37 mg/L | Minimum Inhibitory Concentration ([4]; + 100 µM 5): 21 mg/L | Minimum Inhibitory Concentration ([4]; + 100 µM PAβN): 43 mg/L | MIC ([4]; Klebsiella pneumoniae, read-out: Minimum Inhibitory Concentration): 21 µg/mL

CC(C)(O/N=C(\C(=O)N[C@@H]1C(=O)N2C(C(=O)[O-])=C(C[n+]3ccccc3)CS[C@H]12)c1csc(N)n1)C(=O)O [Ceftazidime]
Minimum Inhibitory Concentration ([3]; + 100 µM 1'): 0.32 mg/L | Minimum Inhibitory Concentration ([3]; + 100 µM 5): 0.53 mg/L | Minimum Inhibitory Concentration ([3]; + 100 µM PAβN): 0.32 mg/L | MIC [3]: 0.43 µg/mL | Minimum Inhibitory Concentration (K. pneumoniae AcrB^V448E; + 100 µM 1'): 0.37^# mg/L | Minimum Inhibitory Concentration (K. pneumoniae AcrB^V448E; + 100 µM 5): 0.32^# mg/L | Minimum Inhibitory Concentration (K. pneumoniae AcrB^V448E; + 100 µM PAβN): 0.53 mg/L | MIC (K. pneumoniae AcrB^V448E): 0.85 µg/mL | Minimum Inhibitory Concentration ([2]; + 100 µM 1'): 1.1 mg/L | Minimum Inhibitory Concentration ([2]; + 100 µM 5): 0.64^# mg/L | Minimum Inhibitory Concentration ([2]; + 100 µM PAβN): 0.64^# mg/L | MIC [2]: 1.3 µg/mL | Minimum Inhibitory Concentration ([4]; + 100 µM 1'): 1.28 mg/L | Minimum Inhibitory Concentration ([4]; + 100 µM 5): 1.28 mg/L | Minimum Inhibitory Concentration ([4]; + 100 µM PAβN): 1.28 mg/L | Minimum Inhibitory Concentration ([4]; No EPI): 1.28 mg/L

NCCNc1ccc2nc(N3CCNCC3)c(Cl)cc2c1 [compound 9]
EC90 (E. coli BW25113; [5]): 3.9 µM | microsomal CLint at 1 μM [1]: 47 µL/min/mg | half-life at 1 μM [1]: 40 min
